Test results reported in PMC3574231 (ACS chemical biology, 2012).

Tests used:
[1] = system: MCF-7 and HEK293 cells
[2] = Reversed-phase HPLC retention; type: physicochemical; settings: chromatographic, C-18 column

Substance	Intracellular CAP fluorescence after pretreatment with 1 mM sodium pervanadate [1]	Retention time by reversed-phase HPLC (measure of overall hydrophobicity) [2]
cyclo[(pCAP)FΦRRRRQ] (head to tail) [cyclic pCAP]	dramatically reduced	
cyclo(FΦRRRRQ) [Peptide 11]		virtually identical retention times
